The assay concerns the target T1, human mAChR M4 (Homo sapiens, UniProt P08173).
T1 sequence (P08173 1-479): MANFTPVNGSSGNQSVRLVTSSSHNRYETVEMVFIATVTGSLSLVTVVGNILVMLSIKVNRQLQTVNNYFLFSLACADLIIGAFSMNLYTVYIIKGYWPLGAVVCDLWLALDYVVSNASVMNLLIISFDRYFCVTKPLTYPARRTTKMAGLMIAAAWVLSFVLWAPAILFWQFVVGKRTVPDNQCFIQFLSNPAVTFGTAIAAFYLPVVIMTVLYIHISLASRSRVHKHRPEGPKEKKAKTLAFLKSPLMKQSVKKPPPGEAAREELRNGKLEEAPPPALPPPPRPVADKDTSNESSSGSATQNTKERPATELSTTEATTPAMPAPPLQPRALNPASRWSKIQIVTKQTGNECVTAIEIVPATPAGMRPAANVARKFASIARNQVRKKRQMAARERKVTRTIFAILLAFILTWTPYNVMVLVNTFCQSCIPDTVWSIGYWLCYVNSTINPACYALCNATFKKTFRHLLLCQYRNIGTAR
Description: mAChR M4 cell-based functional assay (calcium flux), human M4. Particulars: for EC50: Human M4 EC50 (nM), calcium flux, PAM activity with EC20 acetylcholine. A general note: A change in cytosolic calcium serves as a functional read-out for many receptors and channels.

The mark [1] stands for this setting: Table 10, % ACh maximum at 30 μM.

Counter-ions that a name gives are not always drawn. Like-named read-outs stand apart in the source and are kept apart here.

For the compound `Cc1nnc2sc3c(NCc4ccc(C(=O)N5CC6CC6C5)cc4)ncnc3c2c1C` (stereo not drawn) [Compound 126, 3-azabicyclo[3.1.0] hexan-3-yl-[4-[[(3,4-dimethylpyrimido [4′,5′:4,5]thieno[2,3-c]pyridazin-8-yl)amino]methyl]phenyl] methanone], the EC50 (usually the concentration giving half of the maximal effect) (Table 10) was 481 nM. Also, the maximal effect (Emax) (in general, the greatest response seen or fitted, relative to the assay's reference) under setting [1] came to 84.2%.

For the compound `COCC1CN(C(=O)c2ccc(CNc3ncnc4c3sc3nnc(C)c(C)c34)cc2)C1` [Compound 127, [4-[[(3,4-dimethylpyrimido [4′,5′:4,5]thieno[2,3-c]pyridazin-8-yl)amino]methyl]phenyl]-[3-(methoxymethyl)azetidin-1-yl] methanone], the 50% effective concentration (EC50) (Table 10) amounted to 463 nM. Further, under setting [1], the Emax was 88.4%.

For the compound `Cc1nnc2sc3c(NCc4ccc(C(=O)N5CC[C@H](F)C5)cc4)ncnc3c2c1C` [Compound 128, [4-[[(3,4-dimethylpyrimido [4′,5′:4,5]thieno[2,3-c]pyridazin-8-yl)amino]methyl]phenyl]-[(3S)-3-fluoropyrrolidin-1-yl]methanone], the EC50 (Table 10) amounted to 529 nM. Further, the Emax under setting [1] was 92%.

For the compound `Cc1nnc2sc3c(NCc4ccc(C(=O)N5CC[C@@H](F)C5)cc4)ncnc3c2c1C` [Compound 129, [4-[[(3,4-dimethylpyrimido [4′,5′:4,5]thieno[2,3-c]pyridazin-8-yl)amino]methyl]phenyl]-[(3R)-3-fluoropyrrolidin-1-yl]methanone], the EC50 (Table 10) came to 446 nM. In addition, the maximal effect (Emax) under setting [1] came to 90.6%.

In the case of `Cc1nnc2sc3c(NCc4ccc(C(=O)N5CCC(F)(F)CC5)cc4)ncnc3c2c1C` [Compound 130, (4,4-difluoro-1-piperidyl)-[4-[[(3,4-dimethylpyrimido [4′,5′:4,5]thieno[2,3-c]pyridazin-8-yl)amino]methyl]phenyl]methanone], where the note is “Table 10”, the half-maximal effective concentration (EC50) stood at 724 nM. Also, the maximal effect (Emax) under setting [1] was 93.2%.

Turning to `Cc1nnc2sc3c(NCc4ccc(C(=O)N5CCC5)cc4)ncnc3c2c1C` [Compound 131, azetidin-1-yl-[4-[[(3,4-dimethylpyrimido [4′,5′:4,5]thieno[2,3-c]pyridazin-8-yl)amino]methyl]phenyl]methanone], the EC50 (Table 10) was 276 nM. Further, the Emax under setting [1] turned out to be 88.4%.

For the compound `Cc1nnc2sc3c(NCc4ccc(C(=O)N(C)C5CC5)cc4)ncnc3c2c1C` [Compound 132, N-cyclopropyl-4-[[(3,4-dimethylpyrimido [4′,5′:4,5]thieno[2,3-c]pyridazin-8-yl)amino]methyl]-N-methyl-benzamide], the EC50 (Table 10) is 309 nM. In addition, the maximum response (Emax) under setting [1] was determined as 90.4%.

As to `Cc1nnc2sc3c(NCc4ccc(C(=O)NC5CC5)cc4)ncnc3c2c1C` [Compound 133, N-cyclopropyl-4-[[(3,4-dimethylpyrimido [4′,5′:4,5]thieno[2,3-c]pyridazin-8-yl)amino]methyl]benzamide], the EC50 (Table 10) was 100 nM. In addition, under setting [1], the maximal response (Emax) came out at 86%.

For the compound `Cc1nnc2sc3c(NCc4ccc(C(=O)N5CCC(F)(F)C5)cc4)ncnc3c2c1C` [Compound 134, (3,3-difluoropyrrolidin-1-yl)-[4-[[(3,4-dimethylpyrimido [4′,5′:4,5]thieno[2,3-c]pyridazin-8-yl)amino]methyl]phenyl]methanone], the EC50 (Table 10) was 469 nM. The maximum response (Emax) under setting [1] worked out at 91.8%.

With `COc1ccc(CNc2ncnc3c2sc2nnc(C)c(C)c23)cc1` [Compound 135, N-[(4-methoxyphenyl)methyl]-3,4-dimethyl-pyrimido[4′,5′:4,5]thieno [2,3-c]pyridazin-8-amine], the EC50 (Table 10) came to 139 nM. Also, under setting [1], the Emax turned out to be 87.8%.

Consider `COc1c(F)cc(CNc2ncnc3c2sc2nnc(C)c(C)c23)cc1F` [Compound 136, N-[(3,5-difluoro-4-methoxy-phenyl)methyl]-3,4-dimethyl-pyrimido [4′,5′:4,5]thieno[2,3-c] pyridazin-8-amine], for which the concentration giving a half-maximal response (EC50) (Table 10) came to 388 nM. The Emax under setting [1] was found to be 96.8%.

For the compound `Cc1nnc2sc3c(N(C)Cc4ccc(C(C)(C)O)cc4)ncnc3c2c1C` [Compound 137, 2-[4-[[(3,4-dimethylpyrimido [4′,5′:4,5]thieno[2,3-c]pyridazin-8-yl)-methyl-amino]methyl]phenyl] propan-2-ol], the EC50 (Table 10) turned out to be 222 nM. Besides, the maximum response (Emax) under setting [1] worked out at 80.6%.

As to `Cc1nnc2sc3c(NCC45CC(C(C)(C)O)(C4)C5)ncnc3c2c1C` [Compound 138, 2-[1-[[(3,4-dimethylpyrimido [4′,5′:4,5]thieno[2,3-c]pyridazin-8-yl)amino]methyl]-3-bicyclo[1.1.1]pentanyl]propan-2-ol], the half-maximal effective concentration (EC50) (Table 10) was 3090 nM. In addition, the Emax under setting [1] was 85%.

As for `Cc1nnc2sc3c(NC45CC(F)(C4)C5)ncnc3c2c1C` [Compound 139, N-(3-fluoro-1-bicyclo [1.1.1]pentanyl)-3,4-dimethyl-pyrimido [4′,5′:4,5]thieno[2,3-c]pyridazin-8-amine], the concentration giving a half-maximal response (EC50) (Table 10) is 422 nM. Under setting [1], the Emax stood at 67.6%.

On to `COC(=O)C12CC(CNc3ncnc4c3sc3nnc(C)c(C)c34)(C1)C2` [Compound 140, methyl 1-[[(3,4-dimethylpyrimido [4′,5′:4,5]thieno[2,3-c]pyridazin-8-yl)amino]methyl]bicyclo[1.1.1] pentane-3-carboxylate], for which the EC50 (Table 10) came to 1240 nM. Further, under setting [1], the Emax came to 80.3%.

Turning to `Cc1nnc2sc3c(N4CC(Nc5ncccc5C#N)C4)ncnc3c2c1C` [Compound 141, 2-((1-(3,4-dimethylpyrimido [4′,5′:4,5]thieno[2,3-c]pyridazin-8-yl)azetidin-3-yl)amino) nicotinonitrile 2,2,2-trifluoroacetate], the concentration giving a half-maximal response (EC50) (Table 10) was found to be 590 nM. Moreover, the maximum response (Emax) under setting [1] was 66.4%.

In the case of `Cc1nnc2sc3c(N4Cc5ccc(C(C)(C)O)cc5C4)ncnc3c2c1C` [Compound 142, 2-[2-(3,4-dimethylpyrimido [4′,5′:4,5]thieno[2,3-c]pyridazin-8-yl)isoindolin-5-yl]propan-2-ol; 2,2,2-trifluoroacetic acid], the EC50 (Table 10) was 1250 nM. The maximal effect (Emax) under setting [1] is 53.6%.

With `Cc1nnc2sc3c(NCc4ccc(C(C)(O)C5CC5)cc4)ncnc3c2c1C` (stereo not drawn) [Compound 143, 1-cyclopropyl-1-[4-[[(3,4-dimethylpyrimido [4′,5′:4,5]thieno[2,3-c]pyridazin-8-yl)amino]methyl]phenyl]ethanol], the EC50 (Table 10) worked out at 779 nM. Further, the Emax under setting [1] stood at 61.3%.

On to `CCC(O)(CC)c1ccc(CNc2ncnc3c2sc2nnc(C)c(C)c23)cc1` [Compound 144, 3-[4-[[(3,4-dimethylpyrimido [4′,5′:4,5]thieno[2,3-c]pyridazin-8-yl)amino]methyl]phenyl]pentan-3-ol], for which, where the note is “Table 10”, the half-maximal effective concentration (EC50) was determined as 986 nM. For the same compound, the maximal response (Emax) under setting [1] worked out at 78.3%.

Take `CNC(=O)c1ccc(CNc2ncnc3c2sc2nnc(C)c(C)c23)cc1` [Compound 145, 4-[[(3,4-dimethylpyrimido [4′,5′:4,5]thieno[2,3-c]pyridazin-8-yl)amino]methyl]-N-methyl-benzamide]: for the setting “Table 10”, the concentration giving a half-maximal response (EC50) worked out at 101 nM. Besides, under setting [1], the Emax is 82.1%.

As to `Cc1nnc2sc3c(NCc4ccc(C(F)(F)F)nc4)ncnc3c2c1C` [Compound 146, 3,4-dimethyl-N-[[6-(trifluoromethyl)-3-pyridyl]methyl]pyrimido [4′,5′:4,5]thieno[2,3-c] pyridazin-8-amine hydrochloride], the concentration giving a half-maximal response (EC50) (Table 10) is 828 nM. For the same compound, the Emax under setting [1] came to 97.7%.

As for `Cc1cc(C)c(CNc2ncnc3c2sc2nnc(C)c(C)c23)cn1` [Compound 147, N-[(4,6-dimethyl-3-pyridyl)methyl]-3,4-dimethyl-pyrimido [4′,5′:4,5]thieno[2,3-c] pyridazin-8-amine hydrochloride], the Emax was 85.8%. For the same compound, the concentration for a half-maximal effect (EC50) (Table 10) was 429 nM.

Turning to `Cc1cc(CNc2ncnc3c2sc2nnc(C)c(C)c23)cnc1C` [Compound 148, N-[(5,6-dimethyl-3-pyridyl)methyl]-3,4-dimethyl-pyrimido [4′,5′:4,5]thieno[2,3-c] pyridazin-8-amine hydrochloride], the Emax was 84%. Besides, under “Table 10”, the concentration giving a half-maximal response (EC50) worked out at 522 nM.

As to `Cc1nnc2sc3c(NCc4ccc(C(=O)NC5(C)CC5)cc4)ncnc3c2c1C` [Compound 149, 4-[[(3,4-dimethylpyrimido [4′,5′:4,5]thieno[2,3-c]pyridazin-8-yl)amino]methyl]-N-(1-methylcyclopropyl) benzamide], the EC50 (Table 10) amounted to 156 nM. Moreover, under setting [1], the maximal effect (Emax) was found to be 78.3%.

Take `Cc1nnc2sc3c(NCc4ccc(C(=O)NC5CCC5)cc4)ncnc3c2c1C` [Compound 150, N-cyclobutyl-4-[[(3,4-dimethylpyrimido [4′,5′:4,5]thieno[2,3-c]pyridazin-8-yl)amino]methyl]benzamide]: where the note is “Table 10”, the 50% effective concentration (EC50) came to 105 nM. For the same compound, the maximal response (Emax) under setting [1] came to 74.9%.

In the case of `Cc1nnc2sc3c(NCc4ccc(C(=O)NC5CC(F)C5)cc4)ncnc3c2c1C` (stereo not drawn) [Compound 151, 4-[[(3,4-dimethylpyrimido [4′,5′:4,5]thieno[2,3-c]pyridazin-8-yl)amino]methyl]-N-(3-fluorocyclobutyl) benzamide], where the note is “Table 10”, the concentration giving a half-maximal response (EC50) is 27.7 nM. Moreover, the Emax under setting [1] stood at 87.4%.

For `Cc1nnc2sc3c(NCc4ccc(C(=O)NC5CC(F)(F)C5)cc4)ncnc3c2c1C` [Compound 152, N-(3,3-difluorocyclobutyl)-4-[[(3,4-dimethylpyrimido [4′,5′:4,5]thieno[2,3-c]pyridazin-8-yl)amino]methyl]benzamide], the EC50 (Table 10) turned out to be 59.2 nM. In addition, the Emax under setting [1] was determined as 86.9%.

The values are drawn from patent publication US10239887B2, “Positive allosteric modulators of the muscarinic acetylcholine receptor M4” (Vanderbilt University, priority 2016, dated 2019).
